Laboratory results taken from patent publication US6489297B1, “Vasoactive intestinal peptide analogs” (Dabur Research Foundation, priority 2000, dated 2002).
Where a SMILES comes first, the peptide text is derived from it. [ ]: non-standard residue; d: D form. dPhe(4-Cl) = N[C@H](Cc1ccc(Cl)cc1)C(=O)O; Dpg = CCCC(N)(CCC)C(=O)O; Ac5c = NC1(C(=O)O)CCCC1; Deg = CCC(N)(CC)C(=O)O; Aib = CC(C)(N)C(=O)O

How the values were obtained:
Assay type in all cases: cell-based, human
Conditions in all cases: 72 hours
U87MG (glioblastoma) = test: MTT cytotoxicity assay, U87MG cells
Method: (§1) The cytotoxic activity of synthesized peptides was tested on […] human tumor cell lines namely PA-1 (ovary), SW620 (colon) HuTu80 (duodenum), L132 (lung), U87MG (glioblastoma), KB (oral), MIAPaCa2(pancreas), A549(non small cell lung) and HT-29(colon). The tumor cells were collected at exponential growth phase and resuspended in medium (1.5×10^6 cells/ml in RPMI 1640 containing 10% FBS). 150 μl of medium was added to the wells of a 96-well tissue culture plate (Nunc, Denmark) followed by 30 μl of cell suspension. The plate was left in incubator (37° C., 5% CO2) overnight. 20 μl of the peptide (100 pM to 1 uM concentration) was added to marked wells of the 96-well plate. Each concentration was plated in triplicates. 20 μl of medium alone was added to control wells while wells without cells served as blanks. A total volume of 200 μl was ensured in each well and plate was left in incubator (37° C., 5% CO2). After 72 hours of incubation an MTT assay was performed and percentage cytotoxicity was calculated with respect to control cells. Following Tables show the maximum cytotoxicity achieved on various cell lines.

KB (oral) = test: MTT cytotoxicity assay, KB cells
Method: as §1

HuTu80 (duodenum) = test: MTT cytotoxicity assay, HuTu80 cells
Method: as §1

L132 (lung) = test: MTT cytotoxicity assay, L132 cells
Method: as §1

SW620 (colon) = test: MTT cytotoxicity assay, SW620 cells
Method: as §1

PA-1 (ovary) = test: MTT cytotoxicity assay, PA-1 cells
Method: as §1

SMILES: CC[C@H](C)[C@H](NC(=O)[C@H](CO)NC(=O)[C@H](CC(N)=O)NC(=O)[C@H](CC(C)C)NC(=O)[C@H](Cc1ccc(O)cc1)NC(=O)[C@H](CCCCN)NC(=O)[C@H](CCCCN)NC(=O)[C@@H](NC(=O)[C@H](C)NC(=O)[C@H](CC(C)C)NC(=O)[C@H](CCC(N)=O)NC(=O)[C@H](CCCCN)NC(=O)[C@H](CCCNC(=N)N)NC(=O)[C@H](CC(C)C)NC(=O)[C@H](CCCNC(=N)N)NC(=O)[C@@H](NC(=O)[C@H](Cc1ccc(O)cc1)NC(=O)[C@H](CC(N)=O)NC(=O)[C@H](CC(=O)O)NC(=O)[C@@H](NC(=O)[C@@H](Cc1ccc(Cl)cc1)NC(=O)[C@@H](NC(=O)C(CC)(CC)NC(=O)[C@H](CC(=O)O)NC(=O)[C@H](CO)NC(=O)[C@@H](N)Cc1c[nH]cn1)C(C)C)[C@@H](C)O)[C@@H](C)O)C(C)C)C(=O)N[C@@H](CC(C)C)C(=O)N[C@@H](CC(N)=O)C(N)=O [SEQ ID NO: 3] (H-HSD[Deg]V[dPhe(4-Cl)]TDNYTRLRKQLAVKKYLNSILN-NH2)
- Percentage cytotoxicity (U87MG (glioblastoma); 100 pM): 11 ± 7.8%
- Percentage cytotoxicity (U87MG (glioblastoma); 1 nM): 16 ± 6.6%
- Percentage cytotoxicity (U87MG (glioblastoma); 10 nM): 28 ± 7.5%
- Percentage cytotoxicity (U87MG (glioblastoma); 100 nM): 26 ± 6.7%
- Percentage cytotoxicity (U87MG (glioblastoma); 1 μM): 25 ± 4.6%
- Percentage cytotoxicity (KB (oral); 100 pM): 13 ± 8.5%
- Percentage cytotoxicity (KB (oral); 1 nM): 24.5 ± 9.5%
- Percentage cytotoxicity (KB (oral); 10 nM): 22 ± 8.2%
- Percentage cytotoxicity (KB (oral); 100 nM): 18 ± 8.5%
- Percentage cytotoxicity (KB (oral); 1 μM): 14 ± 3.4%
- Percentage cytotoxicity (HuTu80 (duodenum); HuTu80, 100 pM): 14 ± 7.8%
- Percentage cytotoxicity (HuTu80 (duodenum); HuTu80, 1 nM): 29 ± 6.2%
- Percentage cytotoxicity (HuTu80 (duodenum); HuTu80, 10 nM): 28 ± 4.7%
- Percentage cytotoxicity (HuTu80 (duodenum); HuTu80, 100 nM): 24 ± 7.8%
- Percentage cytotoxicity (HuTu80 (duodenum); HuTu80, 1 μM): 14.5 ± 7.1%
- Percentage cytotoxicity (L132 (lung); L132, 100 pM): 14 ± 5.6%
- Percentage cytotoxicity (L132 (lung); L132, 1 nM): 23 ± 3.5%
- Percentage cytotoxicity (L132 (lung); L132, 10 nM): 29 ± 6.7%
- Percentage cytotoxicity (L132 (lung); L132, 100 nM): 26 ± 6.5%
- Percentage cytotoxicity (L132 (lung); L132, 1 μM): 14 ± 6.5%
- Percentage cytotoxicity (SW620 (colon); SW620, 100 pM): 15.9 ± 6.6%
- Percentage cytotoxicity (SW620 (colon); SW620, 1 nM): 29 ± 5.6%
- Percentage cytotoxicity (SW620 (colon); SW620, 10 nM): 27 ± 5.5%
- Percentage cytotoxicity (SW620 (colon); SW620, 100 nM): 22 ± 7.3%
- Percentage cytotoxicity (SW620 (colon); SW620, 1 μM): 16 ± 3.4%
- Percentage cytotoxicity (PA-1 (ovary); PA1, 100 pM): 15 ± 4.5%
- Percentage cytotoxicity (PA-1 (ovary); PA1, 1 nM): 29 ± 5.8%
- Percentage cytotoxicity (PA-1 (ovary); PA1, 10 nM): 22 ± 4.5%
- Percentage cytotoxicity (PA-1 (ovary); PA1, 100 nM): 23.5 ± 5.2%
- Percentage cytotoxicity (PA-1 (ovary); PA1, 1 μM): 22.1 ± 4.5%

SMILES: CC[C@H](C)[C@H](NC(=O)[C@H](CO)NC(=O)[C@H](CC(N)=O)NC(=O)[C@H](CC(C)C)NC(=O)[C@H](Cc1ccc(O)cc1)NC(=O)[C@H](CCCCN)NC(=O)[C@H](CCCCN)NC(=O)[C@@H](NC(=O)[C@H](C)NC(=O)[C@H](CC(C)C)NC(=O)[C@H](CCC(N)=O)NC(=O)[C@H](CCCCN)NC(=O)[C@H](CCCNC(=N)N)NC(=O)[C@H](CC(C)C)NC(=O)[C@H](CCCNC(=N)N)NC(=O)[C@@H](NC(=O)[C@H](Cc1ccc(O)cc1)NC(=O)[C@H](CC(N)=O)NC(=O)[C@H](CC(=O)O)NC(=O)[C@@H](NC(=O)[C@@H](Cc1ccc(Cl)cc1)NC(=O)[C@@H](NC(=O)C1(NC(=O)[C@H](CC(=O)O)NC(=O)[C@H](CO)NC(=O)[C@@H](N)Cc2c[nH]cn2)CCCC1)C(C)C)[C@@H](C)O)[C@@H](C)O)C(C)C)C(=O)N[C@@H](CC(C)C)C(=O)N[C@@H](CC(N)=O)C(N)=O [SEQ ID NO: 4] (H-HSD[Ac5c]V[dPhe(4-Cl)]TDNYTRLRKQLAVKKYLNSILN-NH2)
- Percentage cytotoxicity (U87MG (glioblastoma); 100 pM): 10 ± 4.6%
- Percentage cytotoxicity (U87MG (glioblastoma); 1 nM): 15 ± 7.8%
- Percentage cytotoxicity (U87MG (glioblastoma); 10 nM): 29 ± 6.7%
- Percentage cytotoxicity (U87MG (glioblastoma); 100 nM): 28 ± 7.7%
- Percentage cytotoxicity (U87MG (glioblastoma); 1 μM): 27 ± 5.5%
- Percentage cytotoxicity (KB (oral); 100 pM): 13 ± 8.0%
- Percentage cytotoxicity (KB (oral); 1 nM): 30 ± 7.8%
- Percentage cytotoxicity (KB (oral); 10 nM): 27 ± 7.8%
- Percentage cytotoxicity (KB (oral); 100 nM): 26 ± 5.6%
- Percentage cytotoxicity (KB (oral); 1 μM): 27 ± 4.3%
- Percentage cytotoxicity (HuTu80 (duodenum); HuTu80, 100 pM): 11 ± 8.0%
- Percentage cytotoxicity (HuTu80 (duodenum); HuTu80, 1 nM): 30 ± 7.0%
- Percentage cytotoxicity (HuTu80 (duodenum); HuTu80, 10 nM): 27 ± 5.0%
- Percentage cytotoxicity (HuTu80 (duodenum); HuTu80, 100 nM): 27 ± 7.9%
- Percentage cytotoxicity (HuTu80 (duodenum); HuTu80, 1 μM): 15.5 ± 6.5%
- Percentage cytotoxicity (L132 (lung); L132, 100 pM): 11 ± 8.0%
- Percentage cytotoxicity (L132 (lung); L132, 1 nM): 27 ± 4.5%
- Percentage cytotoxicity (L132 (lung); L132, 10 nM): 30 ± 5.5%
- Percentage cytotoxicity (L132 (lung); L132, 100 nM): 28 ± 5.5%
- Percentage cytotoxicity (L132 (lung); L132, 1 μM): 13 ± 4.5%
- Percentage cytotoxicity (SW620 (colon); SW620, 100 pM): 16.9 ± 5.5%
- Percentage cytotoxicity (SW620 (colon); SW620, 1 nM): 31 ± 6.5%
- Percentage cytotoxicity (SW620 (colon); SW620, 10 nM): 28.5 ± 4.5%
- Percentage cytotoxicity (SW620 (colon); SW620, 100 nM): 23 ± 6.7%
- Percentage cytotoxicity (SW620 (colon); SW620, 1 μM): 15 ± 4.5%
- Percentage cytotoxicity (PA-1 (ovary); PA1, 100 pM): 16.1 ± 0.0%
- Percentage cytotoxicity (PA-1 (ovary); PA1, 1 nM): 30 ± 6.0%
- Percentage cytotoxicity (PA-1 (ovary); PA1, 10 nM): 23 ± 3.5%
- Percentage cytotoxicity (PA-1 (ovary); PA1, 100 nM): 22.3 ± 4.5%
- Percentage cytotoxicity (PA-1 (ovary); PA1, 1 μM): 21 ± 5.5%

SMILES: CCCC(CCC)(NC(=O)[C@H](CCC(N)=O)NC(=O)[C@H](CCCCN)NC(=O)[C@H](CCCNC(=N)N)NC(=O)[C@H](CC(C)C)NC(=O)[C@H](CCCNC(=N)N)NC(=O)[C@@H](NC(=O)[C@H](Cc1ccc(O)cc1)NC(=O)[C@H](CC(N)=O)NC(=O)[C@H](CC(=O)O)NC(=O)[C@@H](NC(=O)[C@H](Cc1ccccc1)NC(=O)[C@@H](NC(=O)C(C)(C)NC(=O)[C@H](CC(=O)O)NC(=O)[C@H](CO)NC(=O)[C@@H](N)Cc1c[nH]cn1)C(C)C)[C@@H](C)O)[C@@H](C)O)C(=O)N[C@@H](C)C(=O)N[C@H](C(=O)N[C@@H](CCCCN)C(=O)N[C@@H](CCCCN)C(=O)N[C@@H](Cc1ccc(O)cc1)C(=O)N[C@@H](CC(C)C)C(=O)N[C@@H](CC(N)=O)C(=O)N[C@@H](CO)C(=O)N[C@H](C(=O)N[C@@H](CC(C)C)C(=O)N[C@@H](CC(N)=O)C(N)=O)[C@@H](C)CC)C(C)C [SEQ ID NO: 9, His-Ser-Asp-Aib-Val-Phe-Thr-Asp-Asn-Tyr-Thr-Arg-Leu-Arg-Lys-Gln-Dpg-Ala-Val-Lys-Lys-Tyr-Leu-Asn-Ser-Ile-Leu-Asn-NH2] (H-HSD[Aib]VFTDNYTRLRKQ[Dpg]AVKKYLNSILN-NH2)
- Percentage cytotoxicity (U87MG (glioblastoma); 100 pM): 11.5 ± 5.0%
- Percentage cytotoxicity (U87MG (glioblastoma); 1 nM): 13.7 ± 3.6%
- Percentage cytotoxicity (U87MG (glioblastoma); 10 nM): 26.7 ± 3.5%
- Percentage cytotoxicity (U87MG (glioblastoma); 100 nM): 18.9 ± 6.5%
- Percentage cytotoxicity (U87MG (glioblastoma); 1 μM): 12.5 ± 6.5%
- Percentage cytotoxicity (KB (oral); 100 pM): 13 ± 5.0%
- Percentage cytotoxicity (KB (oral); 1 nM): 21.5 ± 4.5%
- Percentage cytotoxicity (KB (oral); 10 nM): 16.7 ± 3.2%
- Percentage cytotoxicity (KB (oral); 100 nM): 16.7 ± 5.1%
- Percentage cytotoxicity (KB (oral); 1 μM): 10.5 ± 6.5%
- Percentage cytotoxicity (HuTu80 (duodenum); HuTu80, 100 pM): 14.6 ± 2.7%
- Percentage cytotoxicity (HuTu80 (duodenum); HuTu80, 1 nM): 28.5 ± 3.2%
- Percentage cytotoxicity (HuTu80 (duodenum); HuTu80, 10 nM): 26 ± 5.5%
- Percentage cytotoxicity (HuTu80 (duodenum); HuTu80, 100 nM): 23 ± 6.0%
- Percentage cytotoxicity (HuTu80 (duodenum); HuTu80, 1 μM): 14.6 ± 5.1%
- Percentage cytotoxicity (L132 (lung); L132, 100 pM): 17 ± 2.3%
- Percentage cytotoxicity (L132 (lung); L132, 1 nM): 20 ± 0.0%
- Percentage cytotoxicity (L132 (lung); L132, 10 nM): 18.9 ± 6.0%
- Percentage cytotoxicity (L132 (lung); L132, 100 nM): 17.5 ± 5.5%
- Percentage cytotoxicity (L132 (lung); L132, 1 μM): 13.6 ± 5.6%
- Percentage cytotoxicity (SW620 (colon); SW620, 100 pM): 15.9 ± 4.5%
- Percentage cytotoxicity (SW620 (colon); SW620, 1 nM): 28 ± 5.0%
- Percentage cytotoxicity (SW620 (colon); SW620, 10 nM): 27 ± 3.4%
- Percentage cytotoxicity (SW620 (colon); SW620, 100 nM): 21 ± 3.6%
- Percentage cytotoxicity (SW620 (colon); SW620, 1 μM): 16.7 ± 4.1%
- Percentage cytotoxicity (PA-1 (ovary); PA1, 100 pM): 15.5 ± 3.3%
- Percentage cytotoxicity (PA-1 (ovary); PA1, 1 nM): 27.8 ± 4.3%
- Percentage cytotoxicity (PA-1 (ovary); PA1, 10 nM): 25.6 ± 4.5%
- Percentage cytotoxicity (PA-1 (ovary); PA1, 100 nM): 17.4 ± 3.2%
- Percentage cytotoxicity (PA-1 (ovary); PA1, 1 μM): 15.1 ± 2.3%
